Values quoted from earlier work, collected in US20110033506A1, “COMBINATION DOSAGE FORM OF LOW-DOSE MODAFINIL AND LOW-DOSE SILDENAFIL” (priority 2008, published 2011).

Test system: hamsters
Settings: Agostino et al, PNAS 2007

For `CCCc1nn(C)c2c(=O)[nH]c(-c3cc(S(=O)(=O)N4CCN(C)CC4)ccc3OCC)nc12.O=C(O)CC(O)(CC(=O)O)C(=O)O` [Sildenafil, 1-[[3-(6,7-dihydro-1-methyl-7-oxo-3-propyl-1H-pyrazolo[4,3-d]pyrimidin-5-yl)-4-ethoxyphenyl]sulfonyl]-4-methylpiperazine], the “re-establishing disrupted circadian rhythms (jet lag)” value is given as “effective in re-establishing disrupted circadian rhythms”.
